The target in one assay is T1, MDM2 (Homo sapiens, UniProt Q00987).
T1 construct: made in house
In words: Inhibition test of MDM2-P53 (GST-MDM2, Biotin-P53, Anti-GST-Tb, SA-XL665). It is filed as binding. The note with it: for inhibitory effect on MDM2 compared with positive control compound HDM201: labels are Example numbers, the compounds with S-configuration are meant. A digest of the protocol: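 Compounds, serially diluted 5-fold (twelve concentrations), were shaken for 90 min at 25° C with a mix of GST-MDM2 (4 nM final), Biotin-P53, anti-GST-Tb and SA-XL665. Buffer: 1×PBS, 0.1% BSA, 5 mM DTT, 1 mM AEBSF; signal read on a microplate reader.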

Assay [1] deals with human osteosarcoma cell line SJSA-1. Put plainly: Inhibition of proliferation of human osteosarcoma cell line SJSA-1 (DAPI staining, In Cell Analyzer). The conditions noted are these: for IC50: Homo sapiens, SJSA-1, 72 h, read-out: IC50 (nM), inhibitory activity on proliferation of human osteosarcoma cell line SJSA-1, SJSA-1, incubated 72 h; for inhibitory effect on human osteosarcoma cell line SJSA-1 compared with positive control compound HDM201: labels are Example numbers, the compounds with S-configuration are meant.

21 compounds from patent US11339171B2, “MDM2 inhibitors” (Gan & Lee Pharmaceuticals, priority 2017, dated 2022) can be followed below.

T1 sequence (Q00987 whole entry): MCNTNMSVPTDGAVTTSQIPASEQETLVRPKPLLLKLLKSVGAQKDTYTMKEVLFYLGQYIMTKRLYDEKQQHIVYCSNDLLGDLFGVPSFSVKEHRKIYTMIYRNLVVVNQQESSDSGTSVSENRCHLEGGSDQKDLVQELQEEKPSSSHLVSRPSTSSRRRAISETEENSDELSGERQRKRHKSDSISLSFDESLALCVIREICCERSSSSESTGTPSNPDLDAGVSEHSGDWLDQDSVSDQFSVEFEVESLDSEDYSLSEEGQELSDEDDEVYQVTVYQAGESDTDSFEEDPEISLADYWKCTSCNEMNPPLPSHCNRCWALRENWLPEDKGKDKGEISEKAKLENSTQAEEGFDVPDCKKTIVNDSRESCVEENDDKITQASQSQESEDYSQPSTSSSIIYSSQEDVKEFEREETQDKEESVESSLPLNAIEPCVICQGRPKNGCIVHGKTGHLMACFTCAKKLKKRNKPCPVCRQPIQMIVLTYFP

With `CCOc1ccc(-c2nc3c(n2C(C)C)[C@@]2(C(=O)Nc4cc(Cl)ccc42)N(c2cc(Cl)ccc2C)C3=O)c(OC)c1` [Example S-88, (S)-6-chloro-5′-(5-chloro-2-methylphenyl)-2′-(4-ethoxy-2-methoxyphenyl)-3′-isopropyl-3′H-spiro[dihydroindole-3,4′-pyrrolo[3,4-d]imidazole]-2,6′(5′H)-dione], the IC50 is 2.34 nM against MDM2 and 77.3 nM in assay [1].
For `COc1ccc(C(N)=O)cc1-c1nc2c(n1C(C)C)[C@]1(C(=O)Nc3cc(Cl)ccc31)N(c1cc(Cl)ccc1C)C2=O` [Example R-29, (R)-3-(6-chloro-5′-(5-chloro-2-methylphenyl)-3′-isopropyl-2,6′-dioxo-5′,6′-dihydro-3′H-spiro[dihydroindole-3,4′-pyrrolo[3,4-d]imidazole]-2′-yl)-4-methoxybenzamide], the values for the IC50 (against MDM2; in assay [1]) were 93.6 nM and 10900 nM, respectively.
In the same order, the values of `COc1ccc(C(C)C)c(-c2nc3c(n2C(C)C)[C@@]2(C(=O)Nc4cc(Cl)ccc42)N(c2cc(Cl)ccc2C)C3=O)c1` [Example S-19, (S)-6-chloro-5′-(5-chloro-2-methylphenyl)-3′-isopropyl-2′-(2-isopropyl-5-methoxyphenyl)-3′H-spiro[dihydroindole-3,4′-pyrrolo[3,4-d]imidazole]-2,6′(5′H)-dione] are 34.6 nM and 352 nM.
`COc1cc(N(C)C)ccc1-c1nc2c(n1C(C)C)[C@]1(C(=O)Nc3cc(Cl)ccc31)N(c1cccc(Cl)c1)C2=O` [Example R-104, (R)-6-chloro-5′-(3-chlorophenyl)-2′-(4-(dimethylamino)-2-methoxyphenyl)-3′-isopropyl-3′H-spiro[dihydroindole-3,4′-pyrrolo[3,4-d]imidazole]-2,6′(5′H)-dione]: the IC50 against MDM2 stood at 146 nM; in assay [1], 6890 nM.
For the compound `COc1cc(N)ccc1-c1nc2c(n1C(C)C)[C@@]1(C(=O)Nc3cc(Cl)ccc31)N(c1cc(F)cc(Cl)c1)C2=O` [Example S-67, (S)-2′-(4-amino-2-methoxyphenyl)-6-chloro-5′-(3-chloro-5-fluorophenyl)-3′-isopropyl-3′H-spiro[dihydroindole-3,4′-pyrrolo[3,4-d]imidazole]-2,6′(5′H)-dione], the IC50 against MDM2 was 1.22 nM; in assay [1], 20.8 nM.
On to `COc1nc(OC(C)C)ncc1-c1nc2c(n1C(C)C)C1(C(=O)Nc3cc(Cl)ccc31)N(c1cc(Cl)ccc1C)C2=O` (stereo not drawn) [Example 126, 6-chloro-5′-(5-chloro-2-methylphenyl)-2′-(2-isopropoxy-4-methoxypyrimidin-5-yl)-3′-isopropyl-3′H-spiro[dihydroindole-3,4′-pyrrolo[3,4-d]imidazole]-2,6′(5′H)-dione], for which, at MDM2, the “inhibitory effect on MDM2 compared with positive control compound HDM201” value is “better”. Further, the “inhibitory effect on human osteosarcoma cell line SJSA-1 compared with positive control compound HDM201” value in assay [1] is recorded as “better”.
Turning to `COc1cc(OC(F)(F)F)ccc1-c1nc2c(n1C(C)C)[C@@]1(C(=O)Nc3cc(Cl)ccc31)N(c1cc(Cl)ccc1C)C2=O` [Example S-87, (S)-6-chloro-5′-(5-chloro-2-methylphenyl)-3′-isopropyl-2′-(2-methoxy-4-(trifluoromethoxy)phenyl)-3′H-spiro[dihydroindole-3,4′-pyrrolo[3,4-d]imidazole]-2,6′(5′H)-dione], the IC50 was 3.31 nM at MDM2 and 11.1 nM in assay [1].
In the same order, the values of `CCOc1ncc(-c2nc3c(n2C(C)C)[C@]2(C(=O)Nc4cc(Cl)ccc42)N(c2cc(F)cc(Cl)c2)C3=O)c(OC)n1` [Example R-180, (R)-6-chloro-5′-(3-chloro-5-fluorophenyl)-2′-(2-ethoxy-4-methoxypyrimidin-5-yl)-3′-isopropyl-3′H-spiro[dihydroindole-3,4′-pyrrolo[3,4-d]imidazole]-2,6′(5′H)-dione] are 679 nM and 2170 nM.
For the compound `CCOc1cc(OC)c(-c2nc3c(n2C(C)C)C2(C(=O)Nc4cc(Cl)ccc42)N(c2cc(Cl)ccc2C)C3=O)cn1` (stereo not drawn) [Example 72, 6-chloro-5′-(5-chloro-2-methylphenyl)-2′-(6-ethoxy-4-methoxypyridin-3-yl)-3′-isopropyl-3′H-spiro[dihydroindole-3,4′-pyrrolo[3,4-d]imidazole]-2,6′(5′H)-dione], at MDM2, the “inhibitory effect on MDM2 compared with positive control compound HDM201” value is on record as “better”. For the same compound, in assay [1], the “inhibitory effect on human osteosarcoma cell line SJSA-1 compared with positive control compound HDM201” value is “better”.
As for `COc1cc(OCCF)ncc1-c1nc2c(n1C(C)C)[C@@]1(C(=O)Nc3cc(Cl)ccc31)N(c1cc(Cl)ccc1C)C2=O` [Example S-163, (S)-6-chloro-5′-(5-chloro-2-methylphenyl)-2′-(6-(2-fluoroethoxy)-4-methoxypyridin-3-yl)-3′-isopropyl-3′H-spiro[dihydroindole-3,4′-pyrrolo[3,4-d]imidazole]-2,6′(5′H)-dione], the IC50 against MDM2 came out at 1.36 nM; in assay [1], 126 nM.
In the same order, the values of `CCN(C)c1ccc(-c2nc3c(n2C(C)C)[C@]2(C(=O)Nc4cc(Cl)ccc42)N(c2cc(Cl)ccc2C)C3=O)c(OC)c1` [Example R-99, (R)-6-chloro-5′-(5-chloro-2-methylphenyl)-2′-(4-(ethyl(methyl)amino)-2-methoxyphenyl)-3′-isopropyl-3′H-spiro[dihydroindole-3,4′-pyrrolo[3,4-d]imidazole]-2,6′(5′H)-dione] are 115 nM and 1470 nM.
In the same order, the values of `COc1nc(OCCF)ncc1-c1nc2c(n1C(C)C)[C@@]1(C(=O)Nc3cc(Cl)ccc31)N(c1cc(Cl)cnc1C)C2=O` [Example S-170, (S)-6-chloro-5′-(5-chloro-2-methylpyridin-3-yl)-2′-(2-(2-fluoroethoxy)-4-methoxypyrimidin-5-yl)-3′-isopropyl-3′H-spiro[dihydroindole-3,4′-pyrrolo[3,4-d]imidazole]-2,6′(5′H)-dione] are 1.86 nM and 131 nM.
As to `COc1cc(N(C)C)c(F)cc1-c1nc2c(n1C(C)C)[C@]1(C(=O)Nc3cc(Cl)ccc31)N(c1cc(Cl)ccc1C)C2=O` [Example R-78], the IC50 against MDM2 was determined as 222 nM; in assay [1], 1360 nM.
In the same order, the values of `COc1ccc(C(=O)N(C)C)cc1-c1nc2c(n1C(C)C)[C@]1(C(=O)Nc3cc(Cl)ccc31)N(c1cc(Cl)ccc1C)C2=O` [Example R-22, (R)-3-(6-chloro-5′-(5-chloro-2-methylphenyl)-3′-isopropyl-2,6′-dioxo-5′,6′-dihydro-3′H-spiro[dihydroindole-3,4′-pyrrolo[3,4-d]imidazole]-2′-yl)-4-methoxy-N,N-dimethylbenzamide] are 627 nM and 6950 nM.
In the same order, the values of `CCN(CC)c1ccc(-c2nc3c(n2C(C)C)[C@@]2(C(=O)Nc4cc(Cl)ccc42)N(c2cc(Cl)ccc2C)C3=O)c(OC)c1` [Example S-105, (S)-6-chloro-5′-(5-chloro-2-methylphenyl)-2′-(4-(diethylamino)-2-methoxyphenyl)-3′-isopropyl-3′H-spiro[dihydroindole-3,4′-pyrrolo[3,4-d]imidazole]-2,6′(5′H)-dione] are 11.2 nM and 243 nM.
Turning to `CCN(C)c1ncc(-c2nc3c(n2C(C)C)[C@@]2(C(=O)Nc4cc(Cl)ccc42)N(c2cc(Cl)ccc2C)C3=O)c(OC)n1` [Example S-119, (S)-6-chloro-5′-(5-chloro-2-methylphenyl)-2′-(2-(ethyl(methyl)amino)-4-methoxypyrimidin-5-yl)-3′-isopropyl-3′H-spiro[dihydroindole-3,4′-pyrrolo[3,4-d]imidazole]-2,6′(5′H)-dione], the results for the IC50 (against MDM2; in assay [1]) were 2.39 nM and 20 nM, respectively.
In the same order, the values of `COc1ccncc1-c1nc2c(n1C(C)C)[C@]1(C(=O)Nc3cc(Cl)ccc31)N(c1cc(Cl)ccc1C)C2=O` [Example R-18, (R)-6-chloro-5′-(5-chloro-2-methylphenyl)-3′-isopropyl-2′-(4-methoxypyridin-3-yl)-3′H-spiro[dihydroindole-3,4′-pyrrolo[3,4-d]imidazole]-2,6′(5′H)-dione] are 158 nM and 1620 nM.
In the case of `COc1cc(OC(C)C)ncc1-c1nc2c(n1C(C)C)C1(C(=O)Nc3cc(Cl)ccc31)N(c1cc(Cl)cnc1C)C2=O` (stereo not drawn) [Example 137, 6-chloro-5′-(5-chloro-2-methylpyridin-3-yl)-2′-(6-isopropoxy-4-methoxypyridin-3-yl)-3′-isopropyl-3′H-spiro[dihydroindole-3,4′-pyrrolo[3,4-d]imidazole]-2,6′(5′H)-dione], the “inhibitory effect on MDM2 compared with positive control compound HDM201” value against MDM2 is given as “better”. For the same compound, the “inhibitory effect on human osteosarcoma cell line SJSA-1 compared with positive control compound HDM201” value in assay [1] is “better”.
As for `COc1cc(C(F)(F)F)ccc1-c1nc2c(n1C(C)C)[C@@]1(C(=O)Nc3cc(Cl)ccc31)N(c1cc(Cl)cnc1C)C2=O` [Example S-144, (S)-6-chloro-5′-(5-chloro-2-methylpyridin-3-yl)-3′-isopropyl-2′-(2-methoxy-4-(trifluoromethyl)phenyl)-3′H-spiro[dihydroindole-3,4′-pyrrolo[3,4-d]imidazole]-2,6′(5′H)-dione], the results for the IC50 (against MDM2; in assay [1]) were 3.84 nM and 101 nM, respectively.
In the same order, the values of `CCOc1ccc(-c2nc3c(n2C(C)C)[C@@]2(C(=O)Nc4cc(Cl)ccc42)N(c2cc(Cl)ccc2C)C3=O)c(OC)n1` [Example S-146, (S)-6-chloro-5′-(5-chloro-2-methylphenyl)-2′-(6-ethoxy-2-methoxypyridin-3-yl)-3′-isopropyl-3′H-spiro[dihydroindole-3,4′-pyrrolo[3,4-d]imidazole]-2,6′(5′H)-dione] are 5.44 nM and 67.8 nM.
In the same order, the values of `COc1cc(OC(C)C)ncc1-c1nc2c(n1C(C)C)[C@]1(C(=O)Nc3cc(Cl)ccc31)N(c1cc(Cl)ccc1C)C2=O` [Example R-69, (R)-6-chloro-5′-(5-chloro-2-methylphenyl)-2′-(6-isopropoxy-4-methoxypyridin-3-yl)-3′-isopropyl-3′H-spiro[dihydroindole-3,4′-pyrrolo[3,4-d]imidazole]-2,6′(5′H)-dione] are 636 nM and 6580 nM.
